{
  "source": "patent US20100016207A1",
  "about": "“Methods and Compositions for Raising Levels and Release of Gamma Aminobutyric Acid” (priority 2005, published 2010)",
  "key": {"[1]": {"tested_on": "brain (striatal) GABA, glutamine and glutamate levels", "experiment": "Striatal tissue neurotransmitter contents after oral glutamine (HPLC-EC)", "type": "in vivo, Sprague Dawley rats", "details": "Gln by gavage, striata 2.5 hrs after dosing, vs saline (FIG. 3)", "method": "(§1) Male adult Sprague Dawley (SD) rats (˜250 g) (n=9) were reared under and exposed to a 12 hr light/dark cycle, and provided with food (16% protein) and water ad libitum. Gln (0.5 grams per kilogram (g/Kg) or 1.0 g/Kg, in saline) or saline were administered by gavage. Rats were sacrificed by decapitation 2.5 hours (h) later.\nTo measure GABA contents, brains were quickly dissected on a chilled dissection board. Striata were homogenized with HClO4 and neutralized with 0.1 M Borate buffer (1:10). Data were normalized by the wet weights of the samples.\n(§2) GABA was measured by HPLC, using an ODS column and OPA-sulfite derivation with electrochemical detection. OPA-sulfite HPLC-EC derivation was used to measure GABA levels in both brain tissue and microdialysis samples. The samples were derivatized at 4° C. to allow usage of an auto-sampler (Alltech 580). The detector used was an ESA Coulochem® II 5100A with an ESA microdialysis cell.\n(§3) Data are presented as mean+/−S.E.M. ANOVA or t-test was used to determine differences between groups (significance level, p<0.05)."}, "[2]": {"tested_on": "GABA release in rat striatum", "experiment": "Microdialysis of spontaneous and NMDA-evoked GABA release in rat striatum", "type": "in vivo, rats", "details": "striatal microdialysis, mean±S.E.M.", "method": "as §2, §3\nMicrodialysis was carried out in freely moving rats. Rats were anesthetized, and CMA/11 guide cannulas were permanently implanted into right striatum (AP=+0.5, ML=−3.0 from Bregma, DV=−3.3 mm from Dura) 1 week prior to microdialysis sampling. Dialysis collection was performed using a CMA/11 probe (4 mm), perfused with artificial cerebrospinal fluid (aCSF) at […] and collected at 20 min intervals.\nGABAergic neurons were stimulated by NMDA (500 μM) in aCSF, 1 hr after Gln administration by gavage."}, "[3]": {"experiment": "Plasma glutamate and glutamine levels after oral glutamine", "type": "in vivo, Sprague Dawley rats", "details": "Gln by gavage, vs saline (FIG. 4)", "method": "as §1, §3"}},
  "data": [
    {"compound": "NC(=O)CC[C@H](N)C(=O)O", "note": "[Gln, glutamine]", "values": [
      {"measurement": "striatal Gln levels", "setting": "[1]", "value": "significantly increased"},
      {"measurement": "striatal Glu levels", "setting": "[1]", "value": "slightly decreased"},
      {"measurement": "Maximal spontaneous GABA release", "setting": "[2]; Gln by gavage, freely moving rats, saline 111±7%, p<0.05 (FIG. 6)", "value": "141±12", "unit": "%"},
      {"measurement": "NMDA-evoked GABA release", "setting": "[2]; NMDA 500 μM in aCSF 1 hr after Gln by gavage, saline 177±40% (FIG. 7)", "value": "252±37", "unit": "%"},
      {"measurement": "plasma Gln levels", "setting": "[3]", "value": "increased"},
      {"measurement": "plasma Glu levels", "setting": "[3]", "value": "not"}
    ]}
  ]
}
